Consider 5 compounds from patent US11944661B2, “Pharmaceutical composition containing extract of leaves of Vaccinium bracteatum Thunb. for prevention or treatment of stress disease and depression” (JEONNAM BIOINDUSTRY FOUNDATION, priority 2017, dated 2024).

One data set has as its system SH-SY5Y cells. Put plainly: Cytotoxicity of the pharmacological inhibitors alone, 24-hour incubation. As for the experimental part:
An experiment was carried out to find out the working signaling pathway responsible for the neuroprotective activity of the Vaccinium bracteatum Thunb. leaf extracts against corticosterone-induced neuronal damage. In this experiment, SH-SY5Y cells were pretreated for 1 hour with wortmanin, rapamycin, H89, and PD98059, which are respective pharmacological inhibitors of the PI3K (phosphoinositide 3-kinase), mTOR, PKA (protein kinase A), and MAPK/ERK kinase pathways and then incubated for 2 hours with the hot-water extracts of Vaccinium bracteatum Thunb. leaves (3 μg/ml). Thereafter, 24 hours of incubation with corticosterone (1 mM) was followed by measuring cell viability through MTT assay.
For use in the experiment, the inhibitors alone were assayed for cytotoxicity.

A further data set deals with male ICR mice. Put plainly: Forced swimming test (FST) in normal mice after 1 or 6 days of oral administration. In kind it is in vivo. The note with it: comparative group, dose not given. As for the experimental part: For use in assaying an antidepressant effect of the Vaccinium bracteatum Thunb. leaf extracts, male ICR mice, 6 weeks of age, were purchased from […], Korea. The animals were acclimated to a certain condition in an animal breeding room (temperature: 22±2° C., humidity: 50±5%, contrast: 12-hour light/12-hour dark cycle) for one week before use. Male ICR mice were orally administered the Vaccinium bracteatum Thunb. leaf extract the present invention while escitalopram oxalate was used as an antidepressant for a comparative group. Oral administration was conducted for 1 or 6 days according to the experiment. In a forced swimming test (FST), which is a pre-swim test on the day before the main test (post-swim), tap water of around 25° C. was poured into a cylindrical water tank (about 20 cm in diameter, 40 cm in height) to the height of 15 cm from the bottom, after which the mice were put thereinto and forced to swim for 15 minutes. Then, the mice were withdrawn from the water, wiped with a dry towel, and returned to the breeding box. After 1 or 6 days of drug administration, the main test (post-swim) was performed and video was taken with forced swimming for 6 minutes with the mice in the cylinder. In the recorded images for the five minutes exclusive of the first one minute, the animal behavior was classified into three types for analysis: the animals were floating in the water, showing a slight movement, with only a part of the upper body including the face exposed on the water face (immobility behavior); the animals were swimming around the cylinder in the horizontal direction while splashing the water with their forepaws and rear paws (swimming behavior); and the animals were making the fierce movement of pulling the paws out of the water, scrapping the wall (climbing behavior). Times for the three movements were measured.

The test system of the next data set is corticosterone. Put plainly: Serum stress hormone corticosterone level (ELISA) in normal mice after six days of administration. In kind it is in vivo. The settings on record: comparative group, dose not given. The method, then:
After six days of drug administration to mice in a normal state, effects on the level of the stress hormone corticosterone in sera of the mice were measured using the Abnova ELISA kit according to the manufacturer's instruction.

For data set [1], the system named is male ICR mice subjected to chronic restraint stress (CRS). Put plainly: Forced swimming test (FST) in chronic restraint stress (CRS) mice. The note with it: three weeks of CRS; 10 mg/kg p.o. Type of data set: in vivo. The method, then:
In a forced swimming test (FST), which is a pre-swim test on the day before the main test (post-swim), tap water of around 25° C. was poured into a cylindrical water tank (about 20 cm in diameter, 40 cm in height) to the height of 15 cm from the bottom, after which the mice were put thereinto and forced to swim for 15 minutes. Then, the mice were withdrawn from the water, wiped with a dry towel, and returned to the breeding box. After 1 or 6 days of drug administration, the main test (post-swim) was performed and video was taken with forced swimming for 6 minutes with the mice in the cylinder. In the recorded images for the five minutes exclusive of the first one minute, the animal behavior was classified into three types for analysis: the animals were floating in the water, showing a slight movement, with only a part of the upper body including the face exposed on the water face (immobility behavior); the animals were swimming around the cylinder in the horizontal direction while splashing the water with their forepaws and rear paws (swimming behavior); and the animals were making the fierce movement of pulling the paws out of the water, scrapping the wall (climbing behavior). Times for the three movements were measured. Male ICR mice were purchased and subjected to chronic restraint stress (CRS). In this regard, a constant restraint stress was given by immobilizing the mice for 6 hours per day (a.m. 11 to p.m.5) in an acrylic box 20 cm in height and 7 cm in diameter for three weeks. The hot-water extracts of Vaccinium bracteatum Thunb. leaves were orally administered at each dose to the mice daily 30 min before the stress was given at the same time. For the control, the same volume of saline was administered. As a comparative group, escitalopram oxalate, which is an antidepressant, was orally administered. Animal behavior tests were performed the next day after 3 weeks of restraint stress stimulation. The open field test (OFT) was followed by the forced swimming test (FST). […]

Data set [2] has the same test system. Put plainly: Open field test (OFT) in chronic restraint stress (CRS) mice. The settings on record: three weeks of CRS; 5 minutes; positive control. In kind it is in vivo. The method, then:
Male ICR mice were purchased and subjected to chronic restraint stress (CRS). In this regard, a constant restraint stress was given by immobilizing the mice for 6 hours per day (a.m. 11 to p.m.5) in an acrylic box 20 cm in height and 7 cm in diameter for three weeks. The hot-water extracts of Vaccinium bracteatum Thunb. leaves were orally administered at each dose to the mice daily 30 min before the stress was given at the same time. For the control, the same volume of saline was administered. As a comparative group, escitalopram oxalate, which is an antidepressant, was orally administered. Animal behavior tests were performed the next day after 3 weeks of restraint stress stimulation. The open field test (OFT) was followed by the forced swimming test (FST). After the FST evaluation, whole blood was collected from the mice which were then autopsied to excise the hippocampus and prefrontal cortex. These brain tissues were immediately stored at −70° C. until use in experiments. The open field test (OFT) is an experimental test used to assay locomotor activity levels of animals to determine the anti-anxiety and anti-depressive effects of drugs. An OFT box is an arena having the dimensions of 60 cm diameter×20 cm height with the bottom surface divided into 25 cells. […] In the OFT box, the number of cells which the animal voluntarily crossed for 5 minutes was counted. […]

Counter-ions that a name gives are not always drawn. Like-named read-outs stand apart in the source and are kept apart here.

For `O=S(=O)(NCCNC/C=C/c1ccc(Br)cc1)c1cccc2cnccc12` [H89], the “cytotoxicity of inhibitor alone” value in the data set on SH-SY5Y cells is given as “No cytotoxicity”.
Take `COc1cccc(-c2cc(=O)c3ccccc3o2)c1N` [PD98059]: the “cytotoxicity of inhibitor alone” value in the data set with SH-SY5Y cells is given as “No cytotoxicity”.
In the data set on male ICR mice (one-day administration), `CN(C)CCC[C@@]1(c2ccc(F)cc2)OCc2cc(C#N)ccc21` [escitalopram oxalate] returned a climbing time of 12.43 ± 3.47 s and an immobility time of 194.65 ± 11.55 s. Further, in the data set with male ICR mice (six-day administration), the immobility time stood at 169.65 ± 7.15 s and the swimming time amounted to 128.16 ± 6.65 s. The stress hormone corticosterone in sera in the data set on corticosterone stood at 765 ± 97.5 ng/mL. In data set [1], this compound showed a climbing time of 105.23 ± 15.37 s, an immobility time of 154.74 ± 14.80 s and a swimming time of 146.58 ± 14.84 s. For the same compound, in data set [2], the “number of crossing (locomotor activity)” value was 182.73±5.60 crossings.
As for `CO[C@H]1C[C@@H]2CC[C@@H](C)[C@@](O)(O2)C(=O)C(=O)N2CCCC[C@H]2C(=O)O[C@H]([C@H](C)C[C@@H]2CC[C@@H](O)[C@H](OC)C2)CC(=O)[C@H](C)/C=C(\C)[C@@H](O)[C@@H](OC)C(=O)[C@H](C)C[C@H](C)/C=C/C=C/C=C/1C` [rapamycin], in the data set on SH-SY5Y cells, the “cytotoxicity of inhibitor alone” value is “No cytotoxicity”.
On to `COC[C@H]1OC(=O)c2coc3c2[C@@]1(C)C1=C(C3=O)[C@@H]2CCC(=O)[C@@]2(C)C[C@H]1OC(C)=O` [wortmanin], for which, in the data set with SH-SY5Y cells (24-hour incubation, inhibitor alone), the “cytotoxicity of inhibitor alone” value was “except for the PI3K inhibitor (wortmanin)”.
